From patent publication US12129246B1, “Hydroquinazoline derivatives for the treatment of a disease or disorder” (Novartis AG, priority 2023, dated 2024) come the findings set out here.

The target of one test is T1, human NPR1 (Homo sapiens, UniProt P16066).
T1 construct: host or cells: CHO-K1
T1 sequence (P16066 33-1061): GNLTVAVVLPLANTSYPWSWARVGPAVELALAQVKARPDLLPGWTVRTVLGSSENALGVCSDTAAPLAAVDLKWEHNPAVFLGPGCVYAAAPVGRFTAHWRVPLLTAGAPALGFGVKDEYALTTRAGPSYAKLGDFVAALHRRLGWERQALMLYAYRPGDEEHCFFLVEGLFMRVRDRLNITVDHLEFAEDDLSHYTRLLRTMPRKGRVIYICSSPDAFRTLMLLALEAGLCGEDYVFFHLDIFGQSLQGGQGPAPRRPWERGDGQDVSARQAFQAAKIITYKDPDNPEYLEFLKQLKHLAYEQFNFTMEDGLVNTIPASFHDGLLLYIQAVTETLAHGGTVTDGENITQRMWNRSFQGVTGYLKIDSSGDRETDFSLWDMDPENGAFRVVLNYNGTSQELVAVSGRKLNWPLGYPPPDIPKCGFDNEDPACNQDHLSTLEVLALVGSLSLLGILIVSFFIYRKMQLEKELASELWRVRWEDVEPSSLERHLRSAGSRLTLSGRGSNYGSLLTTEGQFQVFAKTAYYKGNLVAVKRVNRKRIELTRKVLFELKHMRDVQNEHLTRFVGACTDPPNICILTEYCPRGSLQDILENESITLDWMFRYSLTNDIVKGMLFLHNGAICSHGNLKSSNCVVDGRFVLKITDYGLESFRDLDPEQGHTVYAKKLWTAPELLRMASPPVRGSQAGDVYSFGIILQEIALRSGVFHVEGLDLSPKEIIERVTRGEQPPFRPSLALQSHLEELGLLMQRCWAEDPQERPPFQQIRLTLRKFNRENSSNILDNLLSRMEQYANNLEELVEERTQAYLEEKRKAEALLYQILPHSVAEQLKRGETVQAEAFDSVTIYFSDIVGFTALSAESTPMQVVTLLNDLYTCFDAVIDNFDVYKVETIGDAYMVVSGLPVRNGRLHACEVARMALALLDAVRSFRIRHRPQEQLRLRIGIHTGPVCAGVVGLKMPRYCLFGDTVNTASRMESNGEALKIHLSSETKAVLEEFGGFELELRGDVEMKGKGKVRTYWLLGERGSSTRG
Nature of the test: Cellular cGMP production assay, human NPR1 expressing CHO-K1 cells (CisBio HTRF). Type of test: cell-based. The note with it: for AC50: cGMP production, 30 min at 37° C., 12-point dose-response from 30 μM; for Human NPR1 Amax (% of ANP): maximum cGMP production as percentage of the maximum cGMP produced with ANP. The method in brief: (§1)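 Step 1: add buffer (PBS, 0.1% BSA, 1 mM IBMX) and compounds, 3-fold series from 30 μM top. Step 2: incubate 30 min, 37 °C. Step 3: lyse; HTRF reagents 1 h at RT.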
(In TR-FRET formats the signal depends on donor and acceptor labels being close together.)

For another test, the target named is monkey NPR1 (Macaca fascicularis, UniProt A0A7N9DBT9). Kind of test: Cellular cGMP production assay, monkey NPR1 expressing CHO-K1 cells (CisBio HTRF). Type of test: cell-based. To be noted: for Monkey NPR1 Amax (% of ANP): maximum cGMP production as percentage of the maximum cGMP produced with ANP. In short, it runs like this:
as §1

The mark [1] stands for this setting: cGMP production, monkey NPR1 CHO-K1 cells, 30 min at 37° C., 12-point dose-response from 30 μM, read-out: Monkey NPR1 AC50.

Where two headings read alike, the source gives them in different places.

monkey NPR1, sequence (A0A7N9DBT9 entry or part of it): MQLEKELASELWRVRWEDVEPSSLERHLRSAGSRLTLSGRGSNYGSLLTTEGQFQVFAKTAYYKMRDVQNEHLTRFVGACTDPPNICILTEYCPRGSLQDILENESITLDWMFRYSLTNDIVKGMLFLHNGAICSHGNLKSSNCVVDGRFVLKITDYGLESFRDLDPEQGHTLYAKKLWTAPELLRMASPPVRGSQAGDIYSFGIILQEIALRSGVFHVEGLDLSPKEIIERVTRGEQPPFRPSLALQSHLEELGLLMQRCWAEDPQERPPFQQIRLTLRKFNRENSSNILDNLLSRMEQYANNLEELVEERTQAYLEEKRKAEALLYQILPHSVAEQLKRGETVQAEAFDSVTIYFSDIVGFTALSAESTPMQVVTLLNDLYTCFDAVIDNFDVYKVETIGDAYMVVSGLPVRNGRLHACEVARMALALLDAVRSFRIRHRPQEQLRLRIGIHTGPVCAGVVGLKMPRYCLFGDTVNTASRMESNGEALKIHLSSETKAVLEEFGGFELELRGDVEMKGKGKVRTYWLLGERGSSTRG

On to `CC[C@@H](N(C)c1nc2c(c(N[C@@H](CN3C4CCCC3CC4)c3cnn(C)c3)n1)C[C@](C)(c1ccccc1)CC2)C12CC(C(=O)O)(C1)C2` [Compound 28, 3-((1R)-1-(((6R)-4-(((1R)-2-(8-azabicyclo[3.2.1]octan-8-yl)-1-(1-methyl-1H-pyrazol-4-yl)ethyl)amino)-6-methyl-6-phenyl-5,6,7,8-tetrahydroquinazolin-2-yl)(methyl)amino)propyl)bicyclo[1.1.1]pentane-1-carboxylic acid], for which, on human NPR1, half-maximal activity (AC50) was put at 139 nM and the “Human NPR1 Amax (% of ANP)” value was 103.247 % of ANP. This molecule also gave an AC50 at monkey NPR1 of 134 nM. At monkey NPR1 (monkey NPR1 CHO-K1 cells), the “Monkey NPR1 Amax (% of ANP)” value was 105.314 % of ANP.
For `CC[C@@H]([C@H]1CC[C@@](F)(C(=O)O)CC1)N(C)c1nc2c(c(N[C@H](CN3CCC[C@@H](C)C3)c3cnn(C)c3)n1)C[C@@H](c1ccccc1)CC2` [Compound 21, (1S,4r)-1-fluoro-4-((S)-1-(methyl((S)-4-(((S)-1-(1-methyl-1H-pyrazol-4-yl)-2-((R)-3-methylpiperidin-1-yl)ethyl)amino)-6-phenyl-5,6,7,8-tetrahydroquinazolin-2-yl)amino)propyl)cyclohexane-1-carboxylic acid], at human NPR1, the AC50 turned out to be 111 nM and the “Human NPR1 Amax (% of ANP)” value is reported as 96.122 % of ANP. In addition, the AC50 on monkey NPR1 (setting [1]) turned out to be 93 nM. In addition, the “Monkey NPR1 Amax (% of ANP)” value at monkey NPR1 (monkey NPR1 CHO-K1 cells) is reported as 101.974 % of ANP.
Consider `CC[C@H]([C@H]1CC[C@H](C(=O)O)CC1)N(C)c1nc2c(c(N[C@@H](CN3CCC[C@H](C)C3)c3cnn(C)c3)n1)CN(C1CCCCC1)CC2` [Compound 152, (1R,4r)-4-((R)-1-((6-cyclohexyl-4-(((R)-1-(1-methyl-1H-pyrazol-4-yl)-2-((S)-3-methylpiperidin-1-yl)ethyl)amino)-5,6,7,8-tetrahydropyrido[4,3-d]pyrimidin-2-yl)(methyl)amino)propyl)cyclohexane-1-carboxylic acid], for which, at human NPR1, the activity was half-maximal at 1190 nM (AC50) and the “Human NPR1 Amax (% of ANP)” value is 104.537 % of ANP. Half-maximal activity at monkey NPR1 (AC50) was put at 600 nM. In addition, the “Monkey NPR1 Amax (% of ANP)” value at monkey NPR1 (monkey NPR1 CHO-K1 cells) is 106.260 % of ANP.
For the molecule `CC[C@@H](Nc1nc2c(c(N[C@@H](CN3CCCC3)c3ccccc3)n1)C[C@H](c1ccccc1)CC2)[C@H]1CC[C@H](C(=O)O)CC1` [Compound 85, (1R,4r)-4-((R)-1-(((R)-6-phenyl-4-(((R)-1-phenyl-2-(pyrrolidin-1-yl)ethyl)amino)-5,6,7,8-tetrahydroquinazolin-2-yl)amino)propyl)cyclohexane-1-carboxylic acid], at human NPR1, half-maximal activity (AC50) was put at 285 nM and the “Human NPR1 Amax (% of ANP)” value is 102.461 % of ANP. The AC50 at monkey NPR1 (setting [1]) is 238 nM. Besides, the “Monkey NPR1 Amax (% of ANP)” value at monkey NPR1 (monkey NPR1 CHO-K1 cells) is 95.638 % of ANP.
Turning to `CC[C@@H](N(C)c1nc2c(c(N[C@@H](CN3C4CCCC3CC4)c3cnn(C)c3)n1)C[C@H](c1ccc(F)cc1)CC2)C12CC(C(=O)O)(C1)C2` [Compound 25, 3-((1R)-1-(((6R)-4-(((1R)-2-(8-azabicyclo[3.2.1]octan-8-yl)-1-(1-methyl-1H-pyrazol-4-yl)ethyl)amino)-6-(4-fluorophenyl)-5,6,7,8-tetrahydroquinazolin-2-yl)(methyl)amino)propyl)bicyclo[1.1.1]pentane-1-carboxylic acid], on human NPR1, the AC50 was found to be 126 nM and the “Human NPR1 Amax (% of ANP)” value is 102.816 % of ANP. The molecule also registered an AC50 at monkey NPR1 of 108 nM. On monkey NPR1 (monkey NPR1 CHO-K1 cells), the “Monkey NPR1 Amax (% of ANP)” value is recorded as 106.072 % of ANP.
Turning to `CC[C@H]([C@H]1CC[C@H](C(=O)O)CC1)N(C)c1nc2c(c(N[C@@H](CN3CCC[C@H](O)C3)c3cnn(CC)c3)n1)C[C@H](c1cccc(F)c1)CC2` [Compound 163, (1R,4r)-4-((R)-1-(((R)-4-(((R)-1-(1-ethyl-1H-pyrazol-4-yl)-2-((S)-3-hydroxypiperidin-1-yl)ethyl)amino)-6-(3-fluorophenyl)-5,6,7,8-tetrahydroquinazolin-2-yl)(methyl)amino)propyl)cyclohexane-1-carboxylic acid], the AC50 came out at 1710 nM at human NPR1 and 1270 nM at monkey NPR1 (setting [1]). On human NPR1, the “Human NPR1 Amax (% of ANP)” value is 103.903 % of ANP. Further, the “Monkey NPR1 Amax (% of ANP)” value on monkey NPR1 (monkey NPR1 CHO-K1 cells) is 102.145 % of ANP.
As to `CC[C@@H](Nc1nc2c(c(N[C@@H](CN3C4CCCC3CC4)c3sc(C)nc3C)n1)C[C@H](c1cccc(F)c1)CC2)[C@H]1CC[C@H](C(=O)O)CC1` [Compound 24, (1R,4r)-4-((1R)-1-(((6R)-4-(((1S)-2-(8-azabicyclo[3.2.1]octan-8-yl)-1-(2,4-dimethylthiazol-5-yl)ethyl)amino)-6-(3-fluorophenyl)-5,6,7,8-tetrahydroquinazolin-2-yl)amino)propyl)cyclohexane-1-carboxylic acid], on human NPR1, half-maximal activity (AC50) was put at 125 nM and the “Human NPR1 Amax (% of ANP)” value was 112.884 % of ANP. Also, at monkey NPR1, the AC50 stood at 102 nM. The “Monkey NPR1 Amax (% of ANP)” value on monkey NPR1 (monkey NPR1 CHO-K1 cells) is reported as 128.837 % of ANP.
Take `CC[C@H]([C@H]1CC[C@H](C(=O)O)CC1)N(C)c1nc2c(c(N[C@@H](CN3CCCCC3)c3cnn(C4CC4)c3)n1)C[C@H](c1ccccc1)CC2` [Compound 97, (1R,4r)-4-((R)-1-(((R)-4-(((R)-1-(1-cyclopropyl-1H-pyrazol-4-yl)-2-(piperidin-1-yl)ethyl)amino)-6-phenyl-5,6,7,8-tetrahydroquinazolin-2-yl)(methyl)amino)propyl)cyclohexane-1-carboxylic acid]: at human NPR1, half-maximal activity (AC50) was put at 338 nM and the “Human NPR1 Amax (% of ANP)” value was 107.286 % of ANP. Also, the AC50 at monkey NPR1 (setting [1]) is 192 nM. Further, the “Monkey NPR1 Amax (% of ANP)” value at monkey NPR1 (monkey NPR1 CHO-K1 cells) is 96.148 % of ANP.
In the same order, the values of `CC[C@H]([C@H]1CC[C@H](C(=O)O)CC1)N(C)c1nc2c(c(N[C@@H](CN3CCCCC3)c3cnn(CC)c3)n1)C[C@@H](c1cccc(F)c1)CC2` [Compound 116, (1R,4r)-4-((R)-1-(((S)-4-(((R)-1-(1-ethyl-1H-pyrazol-4-yl)-2-(piperidin-1-yl)ethyl)amino)-6-(3-fluorophenyl)-5,6,7,8-tetrahydroquinazolin-2-yl)(methyl)amino)propyl)cyclohexane-1-carboxylic acid] are 477 nM, 95.817 % of ANP, 471 nM and 104.029 % of ANP.
In the same order, the values of `CC[C@H]([C@H]1CC[C@H](C(=O)O)CC1)N(C)c1nc2c(c(NC(CN3CCC[C@H](C)C3)c3cnn(CF)c3)n1)C[C@H](c1ccccc1)CC2` (stereo partly drawn) [Compound 107, (1R,4r)-4-((1R)-1-(((6R)-4-((1-(1-(fluoromethyl)-1H-pyrazol-4-yl)-2-((S)-3-methylpiperidin-1-yl)ethyl)amino)-6-phenyl-5,6,7,8-tetrahydroquinazolin-2-yl)(methyl)amino)propyl)cyclohexane-1-carboxylic acid] are 404 nM, 97.223 % of ANP, 224 nM and 100.163 % of ANP.
On to `CC[C@H]([C@H]1CC[C@H](C(=O)O)CC1)N(C)c1nc2c(c(N[C@@H](CN3C4CCCC3CCC4)c3cnn(CC)c3)n1)C[C@@H](c1cccc(F)c1)CC2` [Compound 52, (1R,4r)-4-((R)-1-(((S)-4-(((R)-2-((1S,5S)-9-azabicyclo[3.3.1]nonan-9-yl)-1-(1-ethyl-1H-pyrazol-4-yl)ethyl)amino)-6-(3-fluorophenyl)-5,6,7,8-tetrahydroquinazolin-2-yl)(methyl)amino)propyl)cyclohexane-1-carboxylic acid], for which, on human NPR1, half-maximal activity (AC50) was put at 188 nM and the “Human NPR1 Amax (% of ANP)” value is 97.880 % of ANP. This molecule also had an AC50 at monkey NPR1 of 167 nM. For the same molecule, the “Monkey NPR1 Amax (% of ANP)” value on monkey NPR1 (monkey NPR1 CHO-K1 cells) is 106.496 % of ANP.
On to `CC[C@@H](Nc1nc2c(c(N[C@@H](CN3CCCCC3)c3cnn(CC)c3)n1)C[C@@H](c1cccc(F)c1)CC2)[C@H]1CC[C@H](C(=O)O)CC1` [Compound 50, (1R,4r)-4-((R)-1-(((S)-4-(((R)-1-(1-ethyl-1H-pyrazol-4-yl)-2-(piperidin-1-yl)ethyl)amino)-6-(3-fluorophenyl)-5,6,7,8-tetrahydroquinazolin-2-yl)amino)propyl)cyclohexane-1-carboxylic acid], for which, on human NPR1, the AC50 stood at 187 nM and the “Human NPR1 Amax (% of ANP)” value was 93.357 % of ANP. For the same molecule, on monkey NPR1 (setting [1]), the AC50 turned out to be 135 nM. On monkey NPR1 (monkey NPR1 CHO-K1 cells), the “Monkey NPR1 Amax (% of ANP)” value is recorded as 107.881 % of ANP.

The AC50 is the concentration giving half of the maximal activity seen.
